Reference: ChEMBL document CHEMBL5223190, “Discovery of Bis-sulfonamides as Novel Inhibitors of Mitochondrial NADH-Quinone Oxidoreductase (Complex I)” (ACS Med Chem Lett, 2023)
Activity calls are given as the source filed them. No cut-off for these calls is given here.

Target: not listed separately
Assay: Inhibition of bovine heart NADH oxidase activity using submitochondrial particle as source of enzyme measured after 4 mins
Type: mitochondria, Bos taurus, Mitochondria
Settings: not given

SMILES | IC50
Cc1ccc(S(=O)(=O)N2CCC[C@H]2COCOCc2ccccc2)cc1 | 4600 nM
Cc1ccc(S(=O)(=O)N2CC[C@@H](COCOC[C@@H]3CCN(S(=O)(=O)c4ccc(C)cc4)C3)C2)cc1 | 1300 nM
CCCCCCCCc1ccc(S(=O)(=O)N2CCC[C@H]2COCOC[C@@H]2CCCN2S(=O)(=O)c2ccc(CCCCCCCC)cc2)cc1 | 3400 nM
Cc1ccc(C(=O)N2CCC[C@H]2COCOC[C@@H]2CCCN2C(=O)c2ccc(C)cc2)cc1 | 5000 nM
Cc1ccc(S(=O)(=O)N2CCC[C@H]2CO)cc1 | > 230000 nM
O=S(=O)(CCCOc1ccccc1)N1CCC[C@H]1COCOC[C@@H]1CCCN1S(=O)(=O)CCCOc1ccccc1 | 2400 nM
O=S(=O)(c1ccccc1)N1CCC[C@H]1COCOC[C@@H]1CCCN1S(=O)(=O)c1ccccc1 | 4100 nM
Cc1ccc(S(=O)(=O)N2[C@H](COCOC[C@@H]3C[C@@H]4CCCC[C@@H]4N3S(=O)(=O)c3ccc(C)cc3)C[C@@H]3CCCC[C@@H]32)cc1 | 5800 nM
Cc1ccc(S(=O)(=O)N2CC[C@@H](OCO[C@@H]3CCN(S(=O)(=O)c4ccc(C)cc4)C3)C2)cc1 | 31000 nM
Cc1ccc(S(=O)(=O)N(C)CCOCOCCN(C)S(=O)(=O)c2ccc(C)cc2)cc1 | 6400 nM
Cc1ccc(S(=O)(=O)N2CCC[C@@H]2COCOC[C@@H]2CCCN2S(=O)(=O)c2ccc(C)cc2)cc1 | 810 nM
CCCCCCCCCCCCS(=O)(=O)N1CCC[C@H]1COCOC[C@@H]1CCCN1S(=O)(=O)CCCCCCCCCCCC | 6500 nM
COc1ccc(S(=O)(=O)N2CCC[C@H]2COCOC[C@@H]2CCCN2S(=O)(=O)c2ccc(OC)cc2)cc1 | 4400 nM
O=S(=O)(c1ccc(Cl)cc1)N1CCC[C@H]1COCOC[C@@H]1CCCN1S(=O)(=O)c1ccc(Cl)cc1 | 1100 nM
Cc1ccc(S(=O)(=O)N2CCC[C@@H]2COCOC[C@H]2CCCN2S(=O)(=O)c2ccc(C)cc2)cc1 | 3100 nM
Cc1ccc(S(=O)(=O)N2CCCC[C@H]2COCOC[C@@H]2CCCCN2S(=O)(=O)c2ccc(C)cc2)cc1 | 2600 nM
CCCCCCCc1ccc(S(=O)(=O)N2CCC[C@H]2COCOC[C@@H]2CCCN2S(=O)(=O)c2ccc(CCCCCCC)cc2)cc1 | 3600 nM
Cc1ccc(S(=O)(=O)N2CCC[C@H]2COCOC[C@@H]2CCCN2S(=O)(=O)c2ccc(C)cc2)cc1 | 890 nM
Cc1ccc(S(=O)(=O)N2CC[C@H]2COCOC[C@@H]2CCN2S(=O)(=O)c2ccc(C)cc2)cc1 | 870 nM
Cc1ccc(S(=O)(=O)N2CCC[C@H]2CCOCOCC[C@@H]2CCCN2S(=O)(=O)c2ccc(C)cc2)cc1 | 620 nM
Cc1ccc(S(=O)(=O)N2CCC[C@H]2COCOCCCc2ccccc2)cc1 | 1100 nM
COCOC[C@@H]1CCCN1S(=O)(=O)c1ccc(C)cc1 | 85000 nM

These reach a lower IC50. Values come first.

IC50 | SMILES
88 nM | CCCCCCCCCCS(=O)(=O)N1CCC[C@H]1COCOC[C@@H]1CCCN1S(=O)(=O)CCCCCCCCCC
150 nM | CCCCCc1ccc(S(=O)(=O)N2CCC[C@H]2COCOC[C@@H]2CCCN2S(=O)(=O)c2ccc(CCCCC)cc2)cc1
270 nM | Cc1ccc(OCCCS(=O)(=O)N2CCC[C@H]2COCOC[C@@H]2CCCN2S(=O)(=O)CCCOc2ccc(C)cc2)cc1
14 nM | O=S(=O)(CCCOc1ccc(I)cc1)N1CCC[C@H]1COCOC[C@@H]1CCCN1S(=O)(=O)CCCOc1ccc(I)cc1
140 nM | CCCCc1ccc(S(=O)(=O)N2CCC[C@H]2COCOC[C@@H]2CCCN2S(=O)(=O)c2ccc(CCCC)cc2)cc1
360 nM | CCCCCCCCS(=O)(=O)N1CCC[C@H]1COCOC[C@@H]1CCCN1S(=O)(=O)CCCCCCCC
16 nM | CC1(CCCCCCCCS(=O)(=O)N2CCC[C@H]2COCOC[C@@H]2CCCN2S(=O)(=O)CCCOc2ccc(I)cc2)N=N1
260 nM | CCCCCCOCCCS(=O)(=O)N1CCC[C@H]1COCOC[C@@H]1CCCN1S(=O)(=O)CCCOCCCCCC
17 nM | CCCCCCCCCCS(=O)(=O)N1CCC[C@H]1COCOC[C@@H]1CCCN1S(=O)(=O)CCCOc1ccc(I)cc1
48 nM | CCCCCCCCCCS(=O)(=O)N1CCC[C@H]1COCOC[C@@H]1CCCN1S(=O)(=O)CCCOCCCCCC
72 nM | CCCCCCCCCCS(=O)(=O)N1CCC[C@H]1COCOC[C@@H]1CCCN1S(=O)(=O)CCCOc1ccc(C)cc1
98 nM | CCCCCCc1ccc(S(=O)(=O)N2CCC[C@H]2COCOC[C@@H]2CCCN2S(=O)(=O)c2ccc(CCCCCC)cc2)cc1
150 nM | CCCCCCCCCCS(=O)(=O)N1CCC[C@H]1COCOC[C@@H]1CCCN1S(=O)(=O)CCCOc1ccccc1

Target: not listed separately
Assay: Inhibition of bovine heart NADH-Q1 oxidoreductase (complex 1) oxidase activity using submitochondrial particle as source of enzyme measured after 4 mins
Type: mitochondria, Bos taurus, Mitochondria
Settings: not given

SMILES | IC50
O=S(=O)(CCCOc1ccc(I)cc1)N1CCC[C@H]1COCOC[C@@H]1CCCN1S(=O)(=O)CCCOc1ccc(I)cc1 | 26 nM
CCCCCCCCCCS(=O)(=O)N1CCC[C@H]1COCOC[C@@H]1CCCN1S(=O)(=O)CCCOc1ccc(I)cc1 | 40 nM

Species on record: Bos taurus
Assay: Binding affinity to bovine heart NADH-Q1 oxidoreductase (complex 1) oxidase activity using submitochondrial particle as source of enzyme using [125I]-(S)-2-{[(tert-butyldiphenylsilyl)oxy]methyl}-1-{[3-(hexyloxy)propyl]sulfonyl}pyrrolidine by SDS-PAGE analysis
Settings: Mitochondria

SMILES | Activity
O=S(=O)(CCCOc1ccc(I)cc1)N1CCC[C@H]1COCOC[C@@H]1CCCN1S(=O)(=O)CCCOc1ccc(I)cc1 | Active
CCCCCCCCCCS(=O)(=O)N1CCC[C@H]1COCOC[C@@H]1CCCN1S(=O)(=O)CCCOc1ccc(I)cc1 | Active

Target: not listed separately
Assay: Inhibition of bovine heart succinate-cytochrome c oxidoreductase activity using submitochondrial particle as source of enzyme measured after 4 mins
Type: mitochondria, Bos taurus, Mitochondria
Settings: not given

IC50 | SMILES
> 20000 nM | O=S(=O)(CCCOc1ccc(I)cc1)N1CCC[C@H]1COCOC[C@@H]1CCCN1S(=O)(=O)CCCOc1ccc(I)cc1
> 20000 nM | CCCCCCCCCCS(=O)(=O)N1CCC[C@H]1COCOC[C@@H]1CCCN1S(=O)(=O)CCCOc1ccc(I)cc1
